Measurements from patent US20250346597A1, “CONDENSED HETEROCYCLIC COMPOUNDS AS INHIBITOR OF DIACYLGLYCEROL KINASES” (BEONE MEDICINES I GMBH, priority 2023, published 2025).

Tests used:
DGKζ = DGKζ (Homo sapiens (Human), UniProt Q13574); test: Biochemical DGK IC50 assay (ADP-Glo, lipid micelle substrate), DGKζ; conditions: full length DGKζ 0.5 nM, ATP 140 μM, DAG 80 μM
Method in brief: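 ADP-Glo luminescence measured ADP made in a 1 h room-temperature reaction. The enzyme was Sf9-expressed, purified full-length human DGKζ, and the substrate was DAG/PS micelles. Assay buffer held 50 mM HEPES, 10 mM MgCl2, 0.01 mM CaCl2, 0.1 mM Na3VO4 and 0.01% BSA. IC50 was derived from activity inhibition over a compound concentration series.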

DGKα = DGKα (Homo sapiens (Human), UniProt P23743); test: Biochemical DGK IC50 assay (ADP-Glo, lipid micelle substrate), DGKα; conditions: full length DGKα […], ATP 140 μM, DAG 80 μM; note: full length DGKα 7.5 nM
DGKα, sequence (P23743 whole entry): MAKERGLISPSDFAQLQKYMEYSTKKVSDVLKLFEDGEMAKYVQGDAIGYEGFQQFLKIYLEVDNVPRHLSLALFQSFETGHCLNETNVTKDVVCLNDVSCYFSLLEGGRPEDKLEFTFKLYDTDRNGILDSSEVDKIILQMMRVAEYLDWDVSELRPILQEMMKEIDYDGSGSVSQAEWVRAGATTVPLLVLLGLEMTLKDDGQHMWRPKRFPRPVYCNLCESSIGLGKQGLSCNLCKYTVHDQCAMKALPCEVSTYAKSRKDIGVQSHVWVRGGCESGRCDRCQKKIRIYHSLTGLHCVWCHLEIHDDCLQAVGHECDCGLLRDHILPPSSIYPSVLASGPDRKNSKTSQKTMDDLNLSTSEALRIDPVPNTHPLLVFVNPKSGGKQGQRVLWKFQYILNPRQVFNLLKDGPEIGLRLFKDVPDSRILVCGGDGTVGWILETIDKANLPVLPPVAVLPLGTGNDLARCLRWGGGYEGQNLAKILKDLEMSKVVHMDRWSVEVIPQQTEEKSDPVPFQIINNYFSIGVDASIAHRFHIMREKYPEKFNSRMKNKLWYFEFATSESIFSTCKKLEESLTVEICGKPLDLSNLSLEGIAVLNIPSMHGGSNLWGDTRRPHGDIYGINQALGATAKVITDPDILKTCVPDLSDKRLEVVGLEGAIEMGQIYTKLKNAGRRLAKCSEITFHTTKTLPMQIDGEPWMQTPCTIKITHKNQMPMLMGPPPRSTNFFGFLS
Method in brief: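 Luminescent ADP-Glo detection followed a 1 h room-temperature reaction of full-length DGKα on DAG/PS micelles, in HEPES buffer with 10 mM MgCl2, 0.01 mM CaCl2, 0.1 mM Na3VO4, BSA and Tween-20. IC50 derived from inhibition across increasing compound concentrations.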

DGKζ, sequence (Q13574 other isoform, or with tags, fused parts or gaps): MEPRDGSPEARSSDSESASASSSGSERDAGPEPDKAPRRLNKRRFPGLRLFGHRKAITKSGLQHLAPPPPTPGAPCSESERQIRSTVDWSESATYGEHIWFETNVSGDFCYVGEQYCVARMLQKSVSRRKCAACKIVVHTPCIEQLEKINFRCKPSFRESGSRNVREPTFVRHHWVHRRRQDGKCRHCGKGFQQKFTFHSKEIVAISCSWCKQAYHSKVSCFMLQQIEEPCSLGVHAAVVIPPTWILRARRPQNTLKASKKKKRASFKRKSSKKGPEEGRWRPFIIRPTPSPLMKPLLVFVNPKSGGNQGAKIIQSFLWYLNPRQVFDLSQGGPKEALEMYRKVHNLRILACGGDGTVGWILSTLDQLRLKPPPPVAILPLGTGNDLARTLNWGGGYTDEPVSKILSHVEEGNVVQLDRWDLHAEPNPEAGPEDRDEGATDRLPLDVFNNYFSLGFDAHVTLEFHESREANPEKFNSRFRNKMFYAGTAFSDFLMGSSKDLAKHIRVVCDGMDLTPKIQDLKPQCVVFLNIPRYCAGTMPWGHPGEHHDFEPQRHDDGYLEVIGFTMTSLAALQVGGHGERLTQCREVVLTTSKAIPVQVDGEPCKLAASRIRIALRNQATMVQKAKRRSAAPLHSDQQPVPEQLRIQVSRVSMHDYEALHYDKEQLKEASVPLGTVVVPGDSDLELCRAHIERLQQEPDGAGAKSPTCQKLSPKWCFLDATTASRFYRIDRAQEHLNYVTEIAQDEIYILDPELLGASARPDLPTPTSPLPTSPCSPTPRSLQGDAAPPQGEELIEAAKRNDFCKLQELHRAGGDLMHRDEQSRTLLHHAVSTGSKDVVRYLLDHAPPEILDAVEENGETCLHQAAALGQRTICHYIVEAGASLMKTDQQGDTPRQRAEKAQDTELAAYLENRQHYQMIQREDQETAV

| SMILES | IC50 (DGKζ) [nM] | IC50 (DGKα) [nM] |
| --- | --- | --- |
| CC[C@H]1CN(C(C)c2ccc(OC)nc2)[C@H](CC)CN1c1cc(=O)n(C)c2cn(CC#N)nc12 (stereo partly drawn) [Compound A41, 2-(7-((2S,5R)-2,5-diethyl-4-(1-(6-methoxypyridin-3-yl)ethyl)piperazin-1-yl)-4-methyl-5-oxo-4,5-dihydro-2H-pyrazolo[4,3-b]pyridin-2-yl)acetonitrile] | 151 | 347 |
| CC[C@H]1CN(C(C)c2ccc(C(F)(F)F)c(C)n2)[C@H](CC)CN1c1cc(=O)n(C)c2cn(CC#N)nc12 (stereo partly drawn) [Compound A50, 2-(7-((2S,5R)-2,5-diethyl-4-(1-(6-methyl-5-(trifluoromethyl)pyridin-2-yl)ethyl)piperazin-1-yl)-4-methyl-5-oxo-4,5-dihydro-2H-pyrazolo[4,3-b]pyridin-2-yl)acetonitrile] | 83 | 703 |
| CC[C@H]1CN(C(C)c2ccc(C3CC3)cn2)[C@H](CC)CN1c1cc(=O)n(C)c2cn(CC#N)nc12 (stereo partly drawn) [Compound A52, 2-(7-((2S,5R)-4-(1-(5-cyclopropylpyridin-2-yl)ethyl)-2,5-diethylpiperazin-1-yl)-4-methyl-5-oxo-4,5-dihydro-2H-pyrazolo[4,3-b]pyridin-2-yl)acetonitrile] | 99 | 118 |
| CC[C@H]1CN(C(C)c2ncc(C)cc2C)[C@H](CC)CN1c1cc(=O)n(C)c2cn(CC#N)nc12 (stereo partly drawn) [Compound A53, 2-(7-((2S,5R)-4-(1-(3,5-dimethylpyridin-2-yl)ethyl)-2,5-diethylpiperazin-1-yl)-4-methyl-5-oxo-4,5-dihydro-2H-pyrazolo[4,3-b]pyridin-2-yl)acetonitrile] | 331 | 4490 |
| CC[C@H]1CN(C(C)c2ccc(OC)c(C)n2)[C@H](CC)CN1c1cc(=O)n(C)c2cn(CC#N)nc12 (stereo partly drawn) [Compound A55, 2-(7-((2S,5R)-2,5-diethyl-4-(1-(5-methoxy-6-methylpyridin-2-yl)ethyl)piperazin-1-yl)-4-methyl-5-oxo-4,5-dihydro-2H-pyrazolo[4,3-b]pyridin-2-yl)acetonitrile] | 653 | 2340 |
| CC[C@H]1CN(C(C)c2ccc(C)c(COC)n2)[C@H](CC)CN1c1cc(=O)n(C)c2cn(CC#N)nc12 (stereo partly drawn) [Compound A56, 2-(7-((2S,5R)-2,5-diethyl-4-(1-(6-(methoxymethyl)-5-methylpyridin-2-yl)ethyl)piperazin-1-yl)-4-methyl-5-oxo-4,5-dihydro-2H-pyrazolo[4,3-b]pyridin-2-yl)acetonitrile] | 271 | 2580 |
| CC[C@H]1CN(C(C)c2ncc(C3CC3)cc2C)[C@H](CC)CN1c1cc(=O)n(C)c2cn(CC#N)nc12 (stereo partly drawn) [Compound A57, 2-(7-((2S,5R)-4-(1-(5-cyclopropyl-3-methylpyridin-2-yl)ethyl)-2,5-diethylpiperazin-1-yl)-4-methyl-5-oxo-4,5-dihydro-2H-pyrazolo[4,3-b]pyridin-2-yl)acetonitrile] | 51 | 14300 |
| CC[C@H]1CN(C(C)c2ccc(C3CC3)c(C)n2)[C@H](CC)CN1c1cc(=O)n(C)c2cn(CC#N)nc12 (stereo partly drawn) [Compound A58, 2-(7-((2S,5R)-4-(1-(5-cyclopropyl-6-methylpyridin-2-yl)ethyl)-2,5-diethylpiperazin-1-yl)-4-methyl-5-oxo-4,5-dihydro-2H-pyrazolo[4,3-b]pyridin-2-yl)acetonitrile] | 94 | 487 |
| CC[C@H]1CN(C(C)c2ccc(OC)cn2)[C@H](CC)CN1c1cc(=O)n(C)c2cn(CC#N)nc12 (stereo partly drawn) [Compound A59, 2-(7-((2S,5R)-2,5-diethyl-4-(1-(5-methoxypyridin-2-yl)ethyl)piperazin-1-yl)-4methyl-5-oxo-4,5-dihydro-2H-pyrazolo[4,3-b]pyridin-2-yl)acetonitrile] | 536 | 137 |
| CC[C@H]1CN(C(C)c2ncc(OC)cc2C)[C@H](CC)CN1c1cc(=O)n(C)c2cn(CC#N)nc12 (stereo partly drawn) [Compound A60, 2-(7-((2S,5R)-2,5-diethyl-4-(1-(5-methoxy-3-methylpyridin-2-yl)ethyl)piperazin-1-yl)-4-methyl-5-oxo-4,5-dihydro-2H-pyrazolo[4,3-b]pyridin-2-yl)acetonitrile] | 643 | 38000 |
